Data as given in ChEMBL document CHEMBL1201862, “PubChem BioAssay data set” (2004).
Blank lines part the entries; values can stand above or below the compound they belong to. Active and inactive are the calls of the source.

What was measured:
[1] = HIV-1 AD8 envelope cell-cell fusion blockers – cherry-pick, dose response (AID 652062); format: functional, cell-based;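 note: luciferase signal from cell-cell fusion driven by HIV-1 clade B AD8 Env; potency is for inhibitors of fusion seen as a drop in luminescence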
[2] = Luminescence Cell-Based Dose Retest to Confirm Inhibitors of Cancer Stem Cells. [Related pubchem assays (depositor defined):AID2717, AID2721]; format: functional; settings: Homo sapiens
[3] = viability loss in CEM21 cells – cell-based, CellTiter-Glo luminescence, cherry-picked, cytotoxicity control for viral fusion inhibitor project, dose response (AID 652042); format: functional;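 note: potency for signal decrease meaning cytotoxicity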
[4] = off-target signal loss in HeLa-CEM21 co-culture – HeLa F-luc CTL cells, cherry-picked, counter-screen for HIV-1 Env fusion inhibitor project, dose response (AID 652040); format: functional, cell-based;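 note: potency for signal decrease marking cytotoxic or nonspecific inhibition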
[5] = blockers of HIV-1 ZM109 envelope-driven cell-cell fusion – HeLa effector, CEM target cells, luciferase, cherry-pick, dose response (AID 652058); format: functional, cell-based;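 note: luciferase signal from HIV-1 Env mediated cell-cell fusion of effector and target cells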
[6] = blockers of HIV-1 envelope-mediated cell-cell fusion – cherry-pick, dose response (AID 652057); format: functional, cell-based
[7] = OVCAR-3 cell viability loss – plate reader, dry powder samples, PAX8 inhibitor project, dose response (AID 743044); format: functional, cell-based
[8] = target: Paired box protein Pax-8 (Homo sapiens, UniProt Q06710); test: PAX8 transcriptional activity inhibition in RMG-I – RMG-I cells, luciferase, cherry-pick, dose response (AID 687027); format: functional, cell-based;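 note: luciferase reporter driven by Pax8 target thyroperoxidase promoter measured by SteadyGlo luminescence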
[9] = OVCAR8 cell viability loss – plate reader, dry powder samples, PAX8 project, dose response (AID 743197); format: functional, cell-based; settings: OVCAR-8
[10] = A2780 cell killing – plate reader, dry powder samples, cytotoxicity control, dose response (AID 743046); format: functional, cell-based
[11] = toxicity toward immortalized ovarian surface epithelium – cell-based, plate reader, dry powder samples, cytotoxicity control for PAX8 inhibitor project, dose response (AID 743045); format: functional
[12] = IGROV1 cell killing – plate reader, dry powder samples, PAX8 inhibitor project, dose response (AID 743043); format: functional, cell-based; settings: IGROV-1
[13] = P. falciparum Dd2 growth inhibitors, dose response, SYBR Green, cherry-picked samples (AID 1159567); format: functional, cell-based
[14] = toxicity to human hepatoma HepG2 cells – cell-based, cherry-picked samples, cytotoxicity control, dose response (AID 1159577); format: functional
[15] = general cell-killing toxicity readout – plate reader, dry powder samples, cytotoxicity control for PAX8 inhibitor project, dose response (AID 743021); format: functional, cell-based
[16] = viability loss in MITF-independent A375 cells – cell-based, CellTiter-Glo luminescence, dry powder, set 2, counter-screen for MITF inhibitor project, dose response (AID 624489); format: functional; settings: A-375;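 note: actives are compounds lowering A375 viability meaning general cytotoxicity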
[17] = cytotoxicity in MITF-independent A375 cells – cell-based, CellTiter-Glo luminescence, dry powder, set 4, counter-screen for MITF inhibitor project, dose response (AID 624364); format: functional; settings: A-375;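 note: A375 melanoma cells are MITF independent so this is a counter screen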
[18] = inhibition of ADAM10 peptide cleavage – biochemical, FRET peptide substrate, recombinant human ADAM10, selectivity assay for ADAM17 exosite inhibitor project, dose response (AID 743259);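 note: ADAM10 enzyme cleaving a FRET peptide substrate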
[19] = viability of uninfected HEp-2 cells – cell-based, HTS, cytotoxicity control for RSV inhibitor project, dose response (AID 2410); format: functional; settings: human respiratory syncytial virus
[20] = target: T1, Disintegrin and metalloproteinase domain-containing protein 17 (Homo sapiens, UniProt P78536); test: exosite inhibitors of ADAM17, dose response, biochemical (AID 743260)
[21] = potency of ADAM10 substrate cleavage blockers – biochemical, QFRET, dose response (AID 743254);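 note: ADAM10 enzyme with the DM2 quenched FRET peptide as substrate; EDANS fluorescence gain as the protease cuts the substrate; inhibitor potency against ADAM10 proteolytic activity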
[22] = target: T1, Disintegrin and metalloproteinase domain-containing protein 17; test: inhibition of ADAM17 substrate cleavage – biochemical, quenched FRET substrate, counter-screen for ADAM10 exosite inhibitor project, dose response (AID 743253)
[23] = target: Transthyretin (Homo sapiens, UniProt P02766); test: Luminescence-based cell-based high throughput dose response assay to identify activators of Transthyretin (TTR) transcription.; format: functional

T1 sequence (P78536 whole entry, the tested form may be a part): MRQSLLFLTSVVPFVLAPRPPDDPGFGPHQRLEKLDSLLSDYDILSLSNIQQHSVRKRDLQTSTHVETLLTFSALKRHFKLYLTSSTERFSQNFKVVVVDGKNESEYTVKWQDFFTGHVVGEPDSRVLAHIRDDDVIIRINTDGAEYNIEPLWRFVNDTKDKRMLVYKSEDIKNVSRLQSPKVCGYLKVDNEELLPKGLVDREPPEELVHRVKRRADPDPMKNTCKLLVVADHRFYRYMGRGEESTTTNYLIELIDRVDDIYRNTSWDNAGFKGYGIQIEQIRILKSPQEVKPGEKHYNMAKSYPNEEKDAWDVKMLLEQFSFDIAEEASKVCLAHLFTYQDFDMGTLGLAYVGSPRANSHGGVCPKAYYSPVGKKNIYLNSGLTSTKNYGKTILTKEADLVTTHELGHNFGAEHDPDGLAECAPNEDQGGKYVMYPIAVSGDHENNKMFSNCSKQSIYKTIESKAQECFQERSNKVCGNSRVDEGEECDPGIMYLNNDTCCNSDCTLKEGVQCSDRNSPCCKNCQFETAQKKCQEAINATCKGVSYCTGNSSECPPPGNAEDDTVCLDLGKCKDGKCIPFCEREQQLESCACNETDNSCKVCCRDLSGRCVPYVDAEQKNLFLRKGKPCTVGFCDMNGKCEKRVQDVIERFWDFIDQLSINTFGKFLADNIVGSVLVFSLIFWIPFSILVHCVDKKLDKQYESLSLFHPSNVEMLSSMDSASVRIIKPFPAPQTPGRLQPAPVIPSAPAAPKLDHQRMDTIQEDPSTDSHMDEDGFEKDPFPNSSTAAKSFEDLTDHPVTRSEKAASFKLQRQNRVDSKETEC
Sequence of Paired box protein Pax-8 (Q06710 whole entry): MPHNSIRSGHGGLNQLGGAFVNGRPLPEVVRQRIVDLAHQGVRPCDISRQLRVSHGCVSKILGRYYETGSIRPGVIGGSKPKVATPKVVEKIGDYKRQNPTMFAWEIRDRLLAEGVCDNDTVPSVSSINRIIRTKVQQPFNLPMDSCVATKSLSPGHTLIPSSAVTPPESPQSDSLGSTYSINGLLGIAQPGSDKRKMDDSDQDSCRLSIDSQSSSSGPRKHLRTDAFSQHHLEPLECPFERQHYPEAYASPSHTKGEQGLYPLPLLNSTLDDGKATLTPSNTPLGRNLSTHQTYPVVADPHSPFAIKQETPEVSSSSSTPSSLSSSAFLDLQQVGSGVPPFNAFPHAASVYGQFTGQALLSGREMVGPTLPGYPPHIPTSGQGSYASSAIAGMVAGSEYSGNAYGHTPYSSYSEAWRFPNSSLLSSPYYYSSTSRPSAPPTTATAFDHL

SMILES: Cc1nn(Cc2ccc(Cl)c(Cl)c2)c(C)c1NC(=O)c1cc(-c2ccc3c(c2)OCO3)on1
AC50 [1]: 56 µM (active)
AC50 [2]: 0.471 µM (active)
AC50 [3]: 20.6 µM (active)
AC50 [4]: > 70 µM (inactive)
AC50 [5]: 28.7 µM (active)
AC50 [6]: 20.3 µM (active)

SMILES: C(=C\c1ccc([C@H]2[C@@H]3CN(Cc4ccc5c(c4)OCO5)C[C@H]2N3)cc1)/c1ccccc1
AC50 [7]: 17.6 µM (active)
AC50 [8]: 20.2 µM (active)
AC50 [9]: 35.1 µM (active)
AC50 [10]: 12 µM (active)
AC50 [11]: 32.4 µM (active)
AC50 [12]: 18.8 µM (active)
AC50 [13]: 2.83 µM (active)
AC50 [14]: 8.83 µM (active)
AC50 [15]: 31.7 µM (active)

SMILES: COc1ccc(C(=O)NC2=C(c3ccc(OC(F)(F)F)cc3)C(=O)c3ccccc3C2=O)cc1
AC50 [16]: 23.4 µM (active)
AC50 [17]: 41 µM (active)

SMILES: Cc1cccc(S(=O)(=O)N2CCCCN3[C@H](CO)[C@H](c4ccc(C#CC(C)C)cc4)[C@H]3C2)c1
AC50 [7]: 9.65 µM (active)
AC50 [8]: 9.99 µM (active)
AC50 [9]: 28.4 µM (active)
AC50 [11]: 36.9 µM (active)
AC50 [12]: 39.5 µM (active)

SMILES: O=C(NC1=C(c2ccccc2)C(=O)c2ccccc2C1=O)c1ccccc1
AC50 [16]: 18.3 µM (active)
AC50 [17]: 47.5 µM (active)

IC50 [20]: > 69.5 µM (inactive)
SMILES: CCOc1cc2c3c(c1)C1(C(=O)N3C(C)(C)C=C2C)C(C#N)=C(N)Oc2cc(O)ccc21 (stereo not given)
IC50 [18]: > 69.5 µM (inactive)
CC50 [19]: 11.8 µM (active)

IC50 [21]: > 69.5 µM (inactive)
IC50 [22]: > 69.5 µM (inactive)
SMILES: CCOc1ccc(/C=N/NC(=O)Cc2csc(Nc3cccc(C(F)(F)F)c3)n2)c(OCC)c1

EC50 [23]: > 167 µM (inactive)
SMILES: Cc1ccc(Nc2c3c(nc4ncnn24)CCC3)cc1
